# Results as given in patent publication US20260062412A1, “NITROGEN-CONTAINING HETEROCYCLIC COMPOUND HAVING MYT1 INHIBITORY ACTIVITY” (CHUGAI SEIYAKU KABUSHIKI KAISHA, priority 2023, published 2026).
# pIC50: −log10 of the molar value.
# Target: MYT1 protein (Homo sapiens (Human), UniProt Q99640)
# Assay: Test for binding to ATP binding site of MYT1 (Kinase Tracer 178 / Eu-Anti-GST antibody TR-FRET)
# Settings: ATP binding site of MYT1, 30 minutes at room temperature
# Chain of MYT1 protein (Q99640 whole entry): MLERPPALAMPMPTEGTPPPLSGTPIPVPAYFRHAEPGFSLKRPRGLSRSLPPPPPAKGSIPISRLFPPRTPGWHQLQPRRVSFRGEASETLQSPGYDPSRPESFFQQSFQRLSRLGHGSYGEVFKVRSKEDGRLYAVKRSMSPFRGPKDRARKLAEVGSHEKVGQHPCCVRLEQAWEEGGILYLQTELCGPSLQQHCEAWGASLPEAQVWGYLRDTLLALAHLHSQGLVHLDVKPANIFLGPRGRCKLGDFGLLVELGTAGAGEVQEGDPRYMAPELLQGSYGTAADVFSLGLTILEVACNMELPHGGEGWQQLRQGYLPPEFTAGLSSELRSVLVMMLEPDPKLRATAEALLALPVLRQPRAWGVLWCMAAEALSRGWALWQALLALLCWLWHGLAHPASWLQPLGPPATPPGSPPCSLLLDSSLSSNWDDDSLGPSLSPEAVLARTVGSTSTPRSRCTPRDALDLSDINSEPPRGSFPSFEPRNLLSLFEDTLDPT
row,pIC50,Compound
1,8.43,"CCc1cc2c(-c3cc(F)c(F)c4[nH]ncc34)c(N)c(=O)[nH]c2c2cccnc12 [Compound C192, 3-Amino-4-(6,7-difluoro-1H-indazol-4-yl)-6-ethyl-1H-1,7-phenanthrolin-2-one]"
2,8.77,"CCOc1cc2c(-c3cc(F)c(Cl)c4[nH]ncc34)c(N)c(=O)[nH]c2c2cccnc12 [Compound C193, 3-Amino-4-(7-chloro-6-fluoro-1H-indazol-4-yl)-6-ethoxy-1H-1,7-phenanthrolin-2-one]"
3,8.80,"CC(C)Oc1cc2c(-c3cc(F)c(Cl)c4[nH]ncc34)c(N)c(=O)[nH]c2c2cccnc12 [Compound C194, 3-Amino-4-(7-chloro-6-fluoro-1H-indazol-4-yl)-6-propan-2-yloxy-1H-1,7-phenanthrolin-2-one]"
4,8.44,"Cc1cc2c(-c3cc(F)c(Cl)c4[nH]ncc34)c(N)c(=O)[nH]c2c2cccnc12 [Compound C196, 3-Amino-4-(7-chloro-6-fluoro-1H-indazol-4-yl)-6-methyl-1H-1,7-phenanthrolin-2-one]"
5,7.70,"Nc1c(-c2cc(F)c(F)c3[nH]ncc23)c2ccc3ncccc3c2[nH]c1=O [Compound C197, 3-Amino-4-(6,7-difluoro-1H-indazol-4-yl)-1H-1,7-phenanthrolin-2-one]"
6,8.51,"Nc1c(-c2cc(F)c(F)c3[nH]ncc23)c2cc(Cl)c3ncccc3c2[nH]c1=O [Compound C198, 3-Amino-6-chloro-4-(6,7-difluoro-1H-indazol-4-yl)-1H-1,7-phenanthrolin-2-one]"
7,8.42,"Nc1c(-c2cc(F)c(F)c3[nH]ncc23)c2cc(O)c3ncccc3c2[nH]c1=O [Compound C199, 3-Amino-4-(6,7-difluoro-1H-indazol-4-yl)-6-hydroxy-1H-1,7-phenanthrolin-2-one]"
8,8.24,"Nc1c(-c2cc(F)c(F)c3[nH]ncc23)c2cc(C3CCC3)c3ncccc3c2[nH]c1=O [Compound C201, 3-Amino-6-cyclobutyl-4-(6,7-difluoro-1H-indazol-4-yl)-1H-1,7-phenanthrolin-2-one]"
9,8.11,"Nc1c(-c2cc(F)c(F)c3[nH]ncc23)c2cc(C3CCCC3)c3ncccc3c2[nH]c1=O [Compound C202, 3-Amino-6-cyclopentyl-4-(6,7-difluoro-1H-indazol-4-yl)-1H-1,7-phenanthrolin-2-one]"
10,7.77,"CC(C)Cc1cc2c(-c3cc(F)c(F)c4[nH]ncc34)c(N)c(=O)[nH]c2c2cccnc12 [Compound C203, 3-Amino-4-(6,7-difluoro-1H-indazol-4-yl)-6-(2-methylpropyl)-1H-1,7-phenanthrolin-2-one]"
11,8.00,"C=Cc1cc2c(-c3cc(F)c(F)c4[nH]ncc34)c(N)c(=O)[nH]c2c2cccnc12 [Compound C204, 3-Amino-4-(6,7-difluoro-1H-indazol-4-yl)-6-ethenyl-1H-1,7-phenanthrolin-2-one]"
12,8.47,"Nc1c(-c2cc(F)c(F)c3[nH]ncc23)c2cc(OC(F)F)c3ncccc3c2[nH]c1=O [Compound C205, 3-Amino-4-(6,7-difluoro-1H-indazol-4-yl)-6-(difluoromethoxy)-1H-1,7-phenanthrolin-2-one]"
13,8.39,"Nc1c(-c2cc(F)c(F)c3[nH]ncc23)c2cc(OC3CCC3)c3ncccc3c2[nH]c1=O [Compound C206, 3-Amino-6-cyclobutyloxy-4-(6,7-difluoro-1H-indazol-4-yl)-1H-1,7-phenanthrolin-2-one]"
14,9.00,"Cn1cc(-c2cc3c(-c4cc(F)c(F)c5[nH]ncc45)c(N)c(=O)[nH]c3c3cccnc23)cn1 [Compound C207, 3-Amino-4-(6,7-difluoro-1H-indazol-4-yl)-6-(1-methylpyrazol-4-yl)-1H-1,7-phenanthrolin-2-one]"
15,8.68,"Nc1c(-c2cc(F)c(F)c3[nH]ncc23)c2cc(N3CCOCC3)c3ncccc3c2[nH]c1=O [Compound C208, 3-Amino-4-(6,7-difluoro-1H-indazol-4-yl)-6-morpholin-4-yl-1H-1,7-phenanthrolin-2-one]"
16,8.82,"CN1CCN(c2cc3c(-c4cc(F)c(F)c5[nH]ncc45)c(N)c(=O)[nH]c3c3cccnc23)CC1 [Compound C209, 3-Amino-4-(6,7-difluoro-1H-indazol-4-yl)-6-(4-methylpiperazin-1-yl)-1H-1,7-phenanthrolin-2-one]"
17,8.89,"Nc1c(-c2cc(F)c(F)c3[nH]ncc23)c2cc(O[C@H]3C[C@H](F)C3)c3ncccc3c2[nH]c1=O [Compound C210, 3-Amino-4-(6,7-difluoro-1H-indazol-4-yl)-6-((1r,3r)-3-fluorocyclobutyl)oxy-1H-1,7-phenanthrolin-2-one]"
18,9.06,"N#C[C@H]1C[C@H](Oc2cc3c(-c4cc(F)c(F)c5[nH]ncc45)c(N)c(=O)[nH]c3c3cccnc23)C1 [Compound C211, (1r,3r)-3-[[3-Amino-4-(6,7-difluoro-1H-indazol-4-yl)-2-oxo-1H-1,7-phenanthrolin-6-yl]oxy]cyclobutane-1-carbonitrile]"
19,8.77,"Nc1c(-c2cc(F)c(F)c3[nH]ncc23)c2cc(OCCC(F)F)c3ncccc3c2[nH]c1=O [Compound C214, 3-Amino-4-(6,7-difluoro-1H-indazol-4-yl)-6-(3,3-difluoropropoxy)-1H-1,7-phenanthrolin-2-one]"
20,8.62,"Nc1c(-c2cc(F)c(F)c3[nH]ncc23)c2cc(-c3cccnc3)c3ncccc3c2[nH]c1=O [Compound C215, 3-Amino-4-(6,7-difluoro-1H-indazol-4-yl)-6-pyridin-3-yl-1H-1,7-phenanthrolin-2-one]"
21,8.47,"Cc1c(C)c2c(-c3cc(F)c(F)c4[nH]ncc34)c(N)c(=O)[nH]c2c2cccnc12 [Compound C216, 3-Amino-4-(6,7-difluoro-1H-indazol-4-yl)-5,6-dimethyl-1H-1,7-phenanthrolin-2-one]"
22,8.74,"Cc1c(C2CC2)c2ncccc2c2[nH]c(=O)c(N)c(-c3cc(F)c(F)c4[nH]ncc34)c12 [Compound C217, 3-Amino-6-cyclopropyl-4-(6,7-difluoro-1H-indazol-4-yl)-5-methyl-1H-1,7-phenanthrolin-2-one]"
23,9.37,"Cc1cc2ncccc2c2[nH]c(=O)c(N)c(-c3cc(F)c(F)c4[nH]ncc34)c12 [Compound C218, 3-Amino-4-(6,7-difluoro-1H-indazol-4-yl)-5-methyl-1H-1,7-phenanthrolin-2-one]"
24,8.68,"Cc1c(F)c2c(-c3cc(F)c(F)c4[nH]ncc34)c(N)c(=O)[nH]c2c2cccnc12 [Compound C219, 3-Amino-4-(6,7-difluoro-1H-indazol-4-yl)-5-fluoro-6-methyl-1H-1,7-phenanthrolin-2-one]"
25,8.39,"Nc1c(-c2cc(F)c(F)c3[nH]ncc23)c2c(F)c(C3CC3)c3ncccc3c2[nH]c1=O [Compound C220, 3-Amino-6-cyclopropyl-4-(6,7-difluoro-1H-indazol-4-yl)-5-fluoro-1H-1,7-phenanthrolin-2-one]"
26,9.14,"Nc1c(-c2cc(F)c(F)c3[nH]ncc23)c2c(F)cc3ncccc3c2[nH]c1=O [Compound C221, 3-Amino-4-(6,7-difluoro-1H-indazol-4-yl)-5-fluoro-1H-1,7-phenanthrolin-2-one]"
27,8.85,"Cc1cc2c(-c3c(F)cc(F)c4[nH]ncc34)c(N)c(=O)[nH]c2c2cccnc12 [Compound C222, 3-Amino-4-(5,7-difluoro-1H-indazol-4-yl)-6-methyl-1H-1,7-phenanthrolin-2-one]"
